This passage reports Activity, EC50 and CC50 results from ChEMBL document CHEMBL4396935, “l-like 3-deazaneplanocin analogues: Synthesis and antiviral properties” (Bioorg Med Chem Lett, 2019).

Data set [1] has as its system Rift Valley fever virus. The data set is described as follows: Antiviral activity against Rift Valley fever virus. Format: functional, organism-based.
Data set [2] concerns Punta Toro virus. As to the kind of experiment: Antiviral activity against Punta Toro virus. The class given is functional, organism-based.
Data set [3] concerns Pichinde virus. As to the kind of experiment: Antiviral activity against Pichinde virus infected in African green monkey Vero cells assessed as reduction in virus induced cytopathic effect. The class given is functional, organism-based.
In data set [4] the test system is Junin virus. As to the kind of experiment: Antiviral activity against Junin virus. Format: functional, organism-based. Conditions: Mammarenavirus juninense.
Data set [5] relates to West Nile virus. The data set is described as follows: Antiviral activity against West Nile virus. The class given is functional, organism-based.
Data set [6] relates to Lassa virus. The data set is described as follows: Antiviral activity against Lassa virus. The class given is functional, organism-based. The conditions noted are these: Mammarenavirus lassaense.
The test system of data set [7] is Yellow fever virus. As to the kind of experiment: Antiviral activity against Yellow fever virus. Format: functional, organism-based.
For data set [8], the system named is H1N1 subtype. The data set is described as follows: Antiviral activity against Influenza A virus (H1N1). Format: functional.
Data set [9] deals with Human adenovirus 5. As to the kind of experiment: Antiviral activity against Human adenovirus 5. Format: functional, organism-based.
In data set [10] the test system is Japanese encephalitis virus. As to the kind of experiment: Antiviral activity against Japanese encephalitis virus. Format: functional, organism-based.
Data set [11] concerns Chikungunya virus. The data set is described as follows: Antiviral activity against Chikungunya virus. Format: functional, organism-based.
Data set [12] concerns Venezuelan equine encephalitis virus. As to the kind of experiment: Antiviral activity against Venezuelan equine encephalitis virus. The class given is functional, organism-based.
The test system of data set [13] is Tacaribe virus. As to the kind of experiment: Antiviral activity against Tacaribe virus infected in African green monkey Vero cells assessed as reduction in virus induced cytopathic effect. Format: functional, organism-based. Conditions: Mammarenavirus tacaribeense. For orientation: Protection from cytopathic effect is a common read-out in antiviral testing.
Data set [14] deals with Ebolavirus. As to the kind of experiment: Antiviral activity against Ebolavirus infected in African green monkey Vero cells by immunofluorescent assay. Format: functional, organism-based. Conditions: for EC50: Orthoebolavirus.
Data set [15] relates to Zika virus. As to the kind of experiment: Antiviral activity against Zika virus. The class given is functional, organism-based.
Data set [16] deals with Human betaherpesvirus 5. As to the kind of experiment: Antiviral activity against human cytomegalovirus. The class given is functional, organism-based.
Data set [17] is described as follows: Cytotoxicity against African green monkey Vero cells. Conditions: chlorocebus sabaeus. Format: cell-based.

≈ marks a conversion by molar mass, not a printed value. Calls of active or inactive are those of the source. No cut-off for these calls is given here.

As for `Nc1nccc2c1ncn2[C@H]1C=C(CF)[C@H](O)[C@@H]1O`, the result in data set [1], in data set [2], in [3], in data set [4], in data set [5] and in data set [6] was inactive. Besides, the result in data set [7], in [8], in [9], in data set [10], in [11] and in [12] was inactive. The outcome in [13], in data set [14], in [15] and in [16] was inactive.
Consider `NC(=O)c1nc(F)cnc1O` [FAVIPIRAVIR], for which the concentration for a half-maximal effect (EC50) (in general, the midpoint of the concentration-response curve) in data set [14] was determined as 18.6 µg/mL (≈ 118 µM).
Turning to `Nc1ncc(Br)c2c1ncn2[C@H]1C=C(CO)[C@H](O)[C@@H]1O`, the EC50 in data set [3] is above 100 µg/mL; in [13] it was above 100 µg/mL; in data set [14] it was 4.2 µg/mL (≈ 12.3 µM). The outcome in data set [4], in data set [6], in [8], in [9], in data set [10] and in [11] was inactive. In addition, in [16], the outcome was inactive. For the same compound, the half-maximal cytotoxic concentration (CC50) (as a rule, the concentration giving 50% cytotoxicity) in data set [17] fell in the range of 83 to 100 µg/mL (≈ 243 to 293 µM).
Regarding `Nc1nccc2c1ncn2[C@H]1C=C(CO)[C@H](O)[C@@H]1O`, the results for the EC50 in data set [3], in data set [13] and in [14] were 0.9 µg/mL (≈ 3.43 µM), 1.3 µg/mL (≈ 4.96 µM) and 8.7 µg/mL (≈ 33.2 µM), respectively. In addition, the result in data set [4], in data set [6], in [8], in [9], in [10] and in [11] was inactive. Also, the outcome in [16] was inactive. The compound further gave a CC50 in [17] of 12 to 85 µg/mL (≈ 45.8 to 324 µM).
As to `NC(=O)c1ncn([C@@H]2O[C@H](CO)[C@@H](O)[C@H]2O)n1` [RIBAVIRIN], the EC50 in data set [3] amounted to 12 µg/mL (≈ 49.1 µM); in [13], 9.3 µg/mL (≈ 38.1 µM).
